Tested on: New Zealand rabbits with normal intraocular pressure
Test: Intraocular pressure reduction experiment in New Zealand rabbits with normal intraocular pressure
Assay type: in vivo
Details: for Intraocular pressure in the left eye: left eye (saline or solvent); for Reduction magnitude of intraocular pressure: left minus right eye
From the text: Experimental Example 2. Intraocular Pressure Reduction Experiment in New Zealand Rabbits with Normal Intraocular Pressure
Rabbits with normal intraocular pressure were adopted to screen intraocular pressure reduction actions of the potential compounds by eye-drop administration.
Male New Zealand rabbits, aged 97-127 days, weighted 2.65-3.5 kg, purchased from PizhouDongfang Breeding Co. Ltd.
The male New Zealand rabbits were randomly divided into 8 rabbits/per group using a computer-generated randomization method Animals in each group were eye-dropped with different test samples in the right eye, and normal saline or solvent in the left eye, and the volume of the administration was both 50 μL/eye. The intraocular pressure of the animals was measured before administration and in 1, 2, 4, 6, 8 and 10 hours after the administration, respectively.

## Cc1cn(COC(=O)c2ccccc2)c(=O)c2cccc(S(=O)(=O)N3CCC(N)C3)c12 (stereo not shown) [Compound 60]
2.5 mg/mL group, 1 hour after administration
  Intraocular pressure in the left eye: 11.63 mmHg
2.5 mg/mL group, 2 hours after administration
  Intraocular pressure in the left eye: 11.58 mmHg
2.5 mg/mL group, 4 hours after administration
  Intraocular pressure in the left eye: 12.83 mmHg
2.5 mg/mL group, 6 hours after administration
  Intraocular pressure in the left eye: 12.38 mmHg
2.5 mg/mL group, 8 hours after administration
  Intraocular pressure in the left eye: 12.29 mmHg
2.5 mg/mL group, 10 hours after administration
  Intraocular pressure in the left eye: 14.33 mmHg
2.5 mg/mL group, before administration
  Intraocular pressure in the left eye: 12.13 mmHg
2.5 mg/mL in right eye, 1 hour after administration
  Intraocular pressure in the right eye: 8.38 mmHg
2.5 mg/mL in right eye, 2 hours after administration
  Intraocular pressure in the right eye: 7.58 mmHg
2.5 mg/mL in right eye, 4 hours after administration
  Intraocular pressure in the right eye: 9.04 mmHg
2.5 mg/mL in right eye, 6 hours after administration
  Intraocular pressure in the right eye: 9.88 mmHg
2.5 mg/mL in right eye, 8 hours after administration
  Intraocular pressure in the right eye: 11.33 mmHg
2.5 mg/mL in right eye, 10 hours after administration
  Intraocular pressure in the right eye: 13.71 mmHg
2.5 mg/mL in right eye, before administration
  Intraocular pressure in the right eye: 12.38 mmHg
2.5 mg/mL, 1 hour after administration
  Reduction magnitude of intraocular pressure: 3.25 mmHg
2.5 mg/mL, 2 hours after administration
  Reduction magnitude of intraocular pressure: 4 mmHg
2.5 mg/mL, 4 hours after administration
  Reduction magnitude of intraocular pressure: 3.79 mmHg
2.5 mg/mL, 6 hours after administration
  Reduction magnitude of intraocular pressure: 2.5 mmHg
2.5 mg/mL, 8 hours after administration
  Reduction magnitude of intraocular pressure: 0.96 mmHg
2.5 mg/mL, 10 hours after administration
  Reduction magnitude of intraocular pressure: 0.62 mmHg
2.5 mg/mL, before administration
  Reduction magnitude of intraocular pressure: −0.25 mmHg
5.0 mg/mL group, 1 hour after administration
  Intraocular pressure in the left eye: 11.33 mmHg
5.0 mg/mL group, 2 hours after administration
  Intraocular pressure in the left eye: 11.42 mmHg
5.0 mg/mL group, 4 hours after administration
  Intraocular pressure in the left eye: 12.63 mmHg
5.0 mg/mL group, 6 hours after administration
  Intraocular pressure in the left eye: 12.75 mmHg
5.0 mg/mL group, 8 hours after administration
  Intraocular pressure in the left eye: 13.29 mmHg
5.0 mg/mL group, 10 hours after administration
  Intraocular pressure in the left eye: 14.08 mmHg
5.0 mg/mL group, before administration
  Intraocular pressure in the left eye: 11.79 mmHg
5.0 mg/mL in right eye, 1 hour after administration
  Intraocular pressure in the right eye: 7.83 mmHg
5.0 mg/mL in right eye, 2 hours after administration
  Intraocular pressure in the right eye: 7.00 mmHg
5.0 mg/mL in right eye, 4 hours after administration
  Intraocular pressure in the right eye: 7.79 mmHg
5.0 mg/mL in right eye, 6 hours after administration
  Intraocular pressure in the right eye: 8.54 mmHg
5.0 mg/mL in right eye, 8 hours after administration
  Intraocular pressure in the right eye: 10.13 mmHg
5.0 mg/mL in right eye, 10 hours after administration
  Intraocular pressure in the right eye: 12.54 mmHg
5.0 mg/mL in right eye, before administration
  Intraocular pressure in the right eye: 11.75 mmHg
5.0 mg/mL, 1 hour after administration
  Reduction magnitude of intraocular pressure: 3.5 mmHg
5.0 mg/mL, 2 hours after administration
  Reduction magnitude of intraocular pressure: 4.42 mmHg
5.0 mg/mL, 4 hours after administration
  Reduction magnitude of intraocular pressure: 4.84 mmHg
5.0 mg/mL, 6 hours after administration
  Reduction magnitude of intraocular pressure: 4.21 mmHg
5.0 mg/mL, 8 hours after administration
  Reduction magnitude of intraocular pressure: 3.16 mmHg
5.0 mg/mL, 10 hours after administration
  Reduction magnitude of intraocular pressure: 1.54 mmHg
5.0 mg/mL, before administration
  Reduction magnitude of intraocular pressure: 0.04 mmHg
10.0 mg/mL group, 1 hour after administration
  Intraocular pressure in the left eye: 12.08 mmHg
10.0 mg/mL group, 2 hours after administration
  Intraocular pressure in the left eye: 12.08 mmHg
10.0 mg/mL group, 4 hours after administration
  Intraocular pressure in the left eye: 12.96 mmHg
10.0 mg/mL group, 6 hours after administration
  Intraocular pressure in the left eye: 12.38 mmHg
10.0 mg/mL group, 8 hours after administration
  Intraocular pressure in the left eye: 13.04 mmHg
10.0 mg/mL group, 10 hours after administration
  Intraocular pressure in the left eye: 13.38 mmHg
10.0 mg/mL group, before administration
  Intraocular pressure in the left eye: 11.96 mmHg
10.0 mg/mL in right eye, 1 hour after administration
  Intraocular pressure in the right eye: 7.96 mmHg
10.0 mg/mL in right eye, 2 hours after administration
  Intraocular pressure in the right eye: 6.42 mmHg
10.0 mg/mL in right eye, 4 hours after administration
  Intraocular pressure in the right eye: 7.13 mmHg
10.0 mg/mL in right eye, 6 hours after administration
  Intraocular pressure in the right eye: 8.00 mmHg
10.0 mg/mL in right eye, 8 hours after administration
  Intraocular pressure in the right eye: 9.42 mmHg
10.0 mg/mL in right eye, 10 hours after administration
  Intraocular pressure in the right eye: 10.96 mmHg
10.0 mg/mL in right eye, before administration
  Intraocular pressure in the right eye: 11.33 mmHg
10.0 mg/mL, 1 hour after administration
  Reduction magnitude of intraocular pressure: 4.12 mmHg
10.0 mg/mL, 2 hours after administration
  Reduction magnitude of intraocular pressure: 5.66 mmHg
10.0 mg/mL, 4 hours after administration
  Reduction magnitude of intraocular pressure: 5.83 mmHg
10.0 mg/mL, 6 hours after administration
  Reduction magnitude of intraocular pressure: 4.38 mmHg
10.0 mg/mL, 8 hours after administration
  Reduction magnitude of intraocular pressure: 3.62 mmHg
10.0 mg/mL, 10 hours after administration
  Reduction magnitude of intraocular pressure: 2.42 mmHg
10.0 mg/mL, before administration
  Reduction magnitude of intraocular pressure: 0.63 mmHg
20 mg/mL group, 1 hour after administration
  Intraocular pressure in the left eye: 12.42 mmHg
20 mg/mL group, 2 hours after administration
  Intraocular pressure in the left eye: 12.96 mmHg
20 mg/mL group, 4 hours after administration
  Intraocular pressure in the left eye: 13.17 mmHg
20 mg/mL group, 6 hours after administration
  Intraocular pressure in the left eye: 12.54 mmHg
20 mg/mL group, 8 hours after administration
  Intraocular pressure in the left eye: 13.17 mmHg
20 mg/mL group, 10 hours after administration
  Intraocular pressure in the left eye: 13.71 mmHg
20 mg/mL group, before administration
  Intraocular pressure in the left eye: 12.63 mmHg
20 mg/mL in right eye, 1 hour after administration
  Intraocular pressure in the right eye: 10.21 mmHg
20 mg/mL in right eye, 2 hours after administration
  Intraocular pressure in the right eye: 7.17 mmHg
20 mg/mL in right eye, 4 hours after administration
  Intraocular pressure in the right eye: 7.92 mmHg
20 mg/mL in right eye, 6 hours after administration
  Intraocular pressure in the right eye: 7.63 mmHg
20 mg/mL in right eye, 8 hours after administration
  Intraocular pressure in the right eye: 8.83 mmHg
20 mg/mL in right eye, 10 hours after administration
  Intraocular pressure in the right eye: 10.83 mmHg
20 mg/mL in right eye, before administration
  Intraocular pressure in the right eye: 12.42 mmHg
20 mg/mL, 1 hour after administration
  Reduction magnitude of intraocular pressure: 2.21 mmHg
20 mg/mL, 2 hours after administration
  Reduction magnitude of intraocular pressure: 5.79 mmHg
20 mg/mL, 4 hours after administration
  Reduction magnitude of intraocular pressure: 5.25 mmHg
20 mg/mL, 6 hours after administration
  Reduction magnitude of intraocular pressure: 4.91 mmHg
20 mg/mL, 8 hours after administration
  Reduction magnitude of intraocular pressure: 4.34 mmHg
20 mg/mL, 10 hours after administration
  Reduction magnitude of intraocular pressure: 2.88 mmHg
20 mg/mL, before administration
  Reduction magnitude of intraocular pressure: 0.21 mmHg
Concentrations of 2.5, 5 and 10 mg/mL
  Reduction of intraocular pressure: remarkably significant reduction of intraocular pressure
